{
  "source": "patent US20250376691A1",
  "about": "“FLOTATION OF CULTURED EMBRYO EXPLANTS FOR IMPROVED PLANT REGENERATION EFFICIENCY” (Monsanto Technology LLC, priority 2022, published 2025)",
  "test_system": "corn seed excised explants",
  "assay": "Agrobacterium-mediated transformation and shoot/plant regeneration of corn seed excised explants (shoot frequency, normal shoot frequency, normal plant frequency)",
  "type": "cell-based",
  "description": "The shoot frequency was calculated as the number of inoculated explants producing shoots divided by the total number of inoculated explants.\nThe shoot frequency was calculated as the number of inoculated explants producing shoots divided by the total number of inoculated explants. […] The normal shoot frequency was calculated as the number of normal shoots divided by the total number of inoculated explants.",
  "data": [
    {"smiles": "O=C(O)COc1ccc(Cl)cc1Cl", "note": "[2,4-D, 2,4-dichlorophenoxyacetic acid]", "values": [
      {"measurement": "average normal plant frequency when 2,4-D was present in co-culture medium", "setting": "4 and 5 day co-culture combined", "value": 0.73, "unit": "%"},
      {"measurement": "average normal plant frequency (%), 2,4-D Present in Co-Culture", "setting": "co-culture 4 days", "value": 0.85, "unit": "%"},
      {"measurement": "average normal plant frequency (%), 2,4-D Present in Co-Culture", "setting": "co-culture 5 days", "value": 0.5, "unit": "%"},
      {"measurement": "Fold Increase in normal plant frequency without 2,4-D versus with 2,4-D, overall/average", "setting": "co-culture medium, 17 experiments", "value": 1.8}
    ]}
  ]
}
